Experimental data reported in patent US10206388B2, “Formulation component” (SYNGENTA LIMITED, priority 2011, dated 2019).

Columns and labels:
Format in all cases: in vivo
[1] = system: four weed species (POLCO, BRAPL, COMBE, DIGSA); experiment: Glasshouse weed test, mesotrione with adjuvants at several rates, mean across species; conditions: Table 25, Example 21: absence of adjuvant, mesotrione 60 or 120 g/ha, Tetronic 1107, mean over two rates, three replicates, 14 and 21 days
Protocol: An agrochemical composition was prepared containing either 0.2, 0.1, 0.05 or 0.025% v/v of the adjuvant in a track sprayer and was applied at a volume of 200 liters per hectare. The commercial adjuvant Tween20® was applied at 0.2% v/v. Mesotrione was applied at either 60 or 120 grams of pesticide per hectare on weeds which had been grown to the 1.3 or 1.4 leaf stage. The commercially available surfactant Tetronic® 1107 was used in the spray tank at a concentration of 0.036 g/l alongside the lower concentration of mesotrione and at a concentration of 0.072 g/l at the higher concentration of mesotrione. The weed species were Polygonum convolvulus (POLCO) 13, Brachiaria platyphylla (BRAPL) 12-13, Comelina berghalensis (COMBE) 12 and Digitaria sanguinalis (DIGSA) 13.
Each spray test was replicated three times. The efficacy of the herbicide was assessed visually and expressed as a percentage of the leaf area killed. Samples were assessed at time periods of 14 and 21 days following application. The results shown in Table 25 below are mean averages over the two rates of mesotrione, three replicates, four weed species and the two assessment timings. The adjuvants are compared to the efficacy of mesotrione in the absence of adjuvant and mesotrione in the presence of the well-known adjuvant Tween®20.

[2] = system: Digitaria sanguinalis (DIGSA); experiment: Glasshouse weed test, mesotrione with adjuvants; conditions: Table 10, Example 7: mesotrione 60 or 120 g/ha; adjuvant 0.2% v/v; Tetronic 1107 in spray tank; mean over two rates, three replicates, 7, 14 and 20 days
Protocol: (§1) The aromatic ester Finsolv® TN (C12-C15 alkyl benzoate) was tested in a glasshouse against three weed species using the herbicide mesotrione. An agrochemical composition was prepared containing 0.2% v/v of the adjuvant in a track sprayer and was applied at a volume of 200 liters per hectare. Mesotrione was applied at either 60 or 120 grams of pesticide per hectare on weeds which had been grown to the 1.3 or 1.4 leaf stage. The weed species were Xanthium strumarium (XANST), Brachiaria platyphylla (BRAPL), and Digitaria sanguinalis (DIGSA). The commercially available surfactant Tetronic® 1107 was used in the spray tank at a concentration of 0.036 g/l alongside the lower concentration of mesotrione and at a concentration of 0.072 g/l at the higher concentration of mesotrione.
(§2) Each spray test was replicated three times. The efficacy of the herbicide was assessed visually and expressed as a percentage of the leaf area killed. Samples were assessed at time periods of 7, 14 and 20 days following application. The results shown in Table 10 below are mean averages over the two rates of mesotrione, three replicates and the three assessment timings, and are compared to the efficacy of mesotrione in the absence of adjuvant and mesotrione in the presence of the well-known adjuvant Tween® 20.

[3] = system: Xanthium strumarium (XANST); experiment: Glasshouse weed test, mesotrione with adjuvants; conditions: Table 10, Example 7: mesotrione 60 or 120 g/ha; adjuvant 0.2% v/v; Tetronic 1107 in spray tank; mean over two rates, three replicates, 7, 14 and 20 days
Protocol: as §1, §2

[4] = system: Brachiaria platyphylla (BRAPL); experiment: Glasshouse weed test, mesotrione with adjuvants; conditions: Table 10, Example 7: mesotrione 60 or 120 g/ha; adjuvant 0.2% v/v; Tetronic 1107 in spray tank; mean over two rates, three replicates, 7, 14 and 20 days
Protocol: as §1, §2

[5] = system: three weed species (XANST, BRAPL, DIGSA); experiment: Glasshouse weed test, mesotrione with adjuvants, mean across species; conditions: mean over two rates
Protocol: as §1, §2
A second experiment was conducted to assess the efficacy of Finsolv® TN as an adjuvant in compositions of mesotrione. This was carried out as outlined above, with the following change: samples were assessed at 6, 14 and 20 days post application.
The results shown in Table 11 below are mean averages over the two rates of mesotrione, three replicates, the three assessment timings, and the three weed species, and are compared to the efficacy of mesotrione in the absence of adjuvant and mesotrione in the presence of the well-known adjuvant Tween® 20.
as §1, with “An” for “The aromatic ester Finsolv® TN (C12-C15 alkyl benzoate) was tested in a glasshouse against three weed species using the herbicide mesotrione. An”
as §2, with “Brij®96. The results shown in Table 16 below are mean averages over the two rates of mesotrione, three replicates, three assessment timings and three weed species. The results are compared to the efficacy of mesotrione in the absence of an adjuvant and mesotrione in the presence of the commercially available adjuvant Brij®96.” for “Tween® 20.”
An agrochemical composition was prepared containing 0.2% v/v of the adjuvant in a track sprayer and was applied at a volume of 200 liters per hectare. The adjuvant oils were emulsified using a small amount of the surfactant Pluronic® PE 10500, which was present in the composition at a concentration of 0.02% v/v. Mesotrione was applied at either 60 or 120 grams of pesticide per hectare on weeds which had been grown to the 1.3 or 1.4 leaf stage. The weed species were Xanthium strumarium (XANST), Brachiaria platyphylla (BRAPL), and Digitaria sanguinalis (DIGSA). […]

CS(=O)(=O)c1ccc(C(=O)C2C(=O)CCCC2=O)c([N+](=O)[O-])c1 [Mesotrione, mesotrione]
Mean percentage kill, Mean across species [1]: 33.7D %
Mean percentage kill DIGSA [2]: 20.0 B %
Mean percentage kill XANST [3]: 36.7 A %
Mean percentage kill BRAPL [4]: 5.3 B %
Mean percentage kill, Mean across species ([5]; Table 10, Example 7: mesotrione 60 or 120 g/ha, adjuvant 0.2% v/v, Tetronic 1107 in spray tank, three replicates, 7, 14 and 20 days): 19.9 B %
Mean percentage kill, Mean across species ([5]; Table 11, Example 7 second experiment: mesotrione 60 or 120 g/ha, adjuvant 0.2% v/v, three replicates, 6, 14 and 20 days, three weed species): 33.0 B %
Mean percentage kill, Mean across species ([5]; Table 16, Example 12: mesotrione 60 or 120 g/ha, adjuvant 0.2% v/v, Tetronic 1107 in spray tank, three replicates, 7, 14 and 20 days, three weed species): 18.0 C %
Mean percentage kill, Mean across species ([5]; Table 21, Example 17: mesotrione 60 or 120 g/ha, adjuvant 0.2% v/v emulsified with Pluronic PE 10500 0.02% v/v, Tetronic 1107, three replicates, 14 and 21 days, three weed species): 19.9C %
Mean percentage kill, Mean across species ([5]; Table 29, Example 26: mesotrione 60 or 120 g/ha, adjuvant 0.2% v/v, Tetronic 1107, three replicates, 14 and 21 days, three weed species): 39.4C %
Mean percentage kill, Mean across species ([5]; Table 35, Example 35: mesotrione 60 or 120 g/ha, adjuvant 0.2% v/v, Tetronic 1107, three replicates, 14 and 21 days, three weed species): 33.8B %
